Measurements published in US12102631B2, “Quinolylnitrones for the treatment and prevention of a cerebral stroke or ischaemia” (ISQUAEMIA BIOTECH, S.L., priority 2018, dated 2024).

Tests used:
[1] = tested on: primary neuronal cultures from rat cerebral cortex; test: Neuroprotection (MTT cell viability) in primary neuronal cultures exposed to oxygen-glucose deprivation (OGD); type: cell-based; details: 24 h recovery after 4 h OGD, R24 h = 0%, control = 100%
Procedure: Primary neuronal cultures. Primary neuronal cultures from rat cerebral cortex were prepared as previously described.^54 All procedures associated with animal experiments were approved by the Ethics Committee of the Hospital Ramón y Cajal, Madrid (Spain). Cell suspensions from cerebral cortex were prepared from 16- to 17-day-old Sprague-Dawley rat embryos. Living cells in cell suspension were counted by trypan blue exclusion method. Cells were seeded on plastic multidishes precoated with 0.05 mg/mL poly-D-lysine at a density of 2.5×10^5 cells/cm^2 and were kept at 37° C. in a 6.5% CO2 atmosphere in high glucose Dulbecco's medium supplemented with 15% heat-inactivated (56° C. for 30 min) foetal calf serum. After 24 h, cultured cells were […] to induce experimental ischemia.^23 Cultured cells were washed and placed in glucose-free Dulbecco's medium (bubbled with 95% N2/5% CO2 for 30 min), and maintained in a humidified hypoxia chamber equipped with an oxygen and carbon dioxide control unit (Biospherix) at 6.5% CO2 and <0.1% O2 in N2 at 37° C. Cells were exposed to OGD for a period of 4 h (OGD 4 h). At the end of the OGD period, culture medium was replaced with oxygenated serum-free medium, and cells were placed and maintained in the normoxic incubator for 24 h to recovery (R24 h). In the neuroprotection experiments, the compounds were added at the onset of recovery period. Control cultures in Dulbecco's medium containing glucose were kept in the normoxic incubator for the same period of time as the OGD, and then medium (Dulbecco's/Ham's F12, 1:1 [vol/vol], 5 mg/mL glucose, 2 mM L-glutamine, and 1 mM sodium pyruvate, and supplemented with 100 μg/mL transferrin, 100 μM putrescine, 20 nM progesterone, 30 nM sodium selenite and 5 μg/mL insulin). Here, 6-7 day old cultured neurons were used in the experiments, and contained 90% β-III-tubulin-positive mature neurons, as described previously.^55
Exposure of cell cultures to oxygen-glucose deprivation and treatments. Primary neuronal cultures were exposed to […]. Control experiments included the same amounts of vehicle (final concentration<0.5% ethanol). Nitrone 2 was used as reference compound for neuroprotection. The experimental procedures were blindly performed, assigning a random order to each assayed nitrone. Nitrones were analyzed independently four-eight times with different batch of cultures and each experiment was run in quadruplicate.
Cell viability assay. Cell viability was evaluated by quantification of living, metabolically active cells, as determined by a colorimetric assay using the photometric reduction of 3-(4,5-dimethylthiazol-2-yl)-2,5-diphenyl tetrazolium bromide (MTT) (Roche) to a blue formazan product. The assay of living, metabolically active cells was performed by incubating with 0.2 mg/mL MTT in the culture medium for 1.5 h in an incubator at 37° C. in a 6.5% CO2 atm. After the incubation period, cells were lysed with an equal volume of 10 mM HCl and 10% SDS overnight. Values were quantified by absorbance (test 595 nm, reference 690 nm). Decreased MTT activity denotes impairment of mitochondrial function and is considered to be an index of cell damage. Primary neuronal cultures were collected at times indicated for MTT determination.
Neuroprotection of compounds was evaluated by a cell viability assay. The neuroprotective effect of the compounds 5-32 was evaluated on primary neuronal cultures from cerebral cortex subjected to oxygen-glucose deprivation (OGD) to induce experimental ischemia. Afterwards, cultured neurons were placed and kept in normoxic and normoglycemic conditions to recovery. […]

[2] = Superoxide radical scavenging (hypoxanthine/xanthine oxidase system); type: biochemical; details: tested at 100 μM (0.1 mM)
Source text: 3.7. Superoxide radical scavenging activity. Superoxide anion radical (O2⋅−) is less toxic than hydroxyl radical, but still one of the most known harmful toxic ROS. In physiological conditions, superoxide dismutase catalyzes its conversion to H2O2, which is the precursor for the formation of hydroxyl radicals in the presence of iron ions.43 Superoxide anion radicals O2⋅− and H2O2 are ROS produced in vivo through a one-electron reduction process of O2. The evaluation of superoxide anion radical scavenging activity can be determined using assays involving non-enzymatic or enzymatic production of superoxide anions. In this assay, superoxide anion radicals were generated by a hypoxanthine and xanthine oxidase reaction system, and the O2⋅− scavenging activity (%) has been measured spectrophotometrically.

Structure (SMILES) | viability at 1 µM ([1]; Rattus norvegicus, 1 μM) [%] | viability at 10 µM ([1]; Rattus norvegicus, 10 μM) [%] | viability at 100 µM ([1]; Rattus norvegicus, 100 μM) [%] | viability at 250 µM ([1]; Rattus norvegicus) [%] | also measured
Cc1ccc2ncc(/C=[N+](\[O-])Cc3ccccc3)cc2c1 [Compound 12, (Z)—N-Benzyl-1-(6-methylquinolin-3-yl)methanimine oxide] | 37 ± 0.05 | 37.7 ± 0.66 | 34.4 ± 0.67 | 34.11 ± 0.15 | –
COc1ccc(OC)c2nc(Cl)c(/C=[N+](\[O-])Cc3ccccc3)cc12 [Compound 28, (Z)—N-Benzyl-1-(2-chloro-5,8-dimethoxyquinolin-3-yl)methanimine oxide] | 35.1 ± 0.84 | 38.6 ± 0.55 | 44.27 ± 0.39 | – | –
Cc1ccc2nc(Cl)c(/C=[N+](\[O-])c3ccccc3)cc2c1 [Compound 11, (Z)-1-(2-Chloro-6-methylquinolin-3-yl)-N-phenylmethanimine oxide] | 21.1 ± 0.31 | 36.5 ± 1 | < 0 | 1 ± 0.07 | –
O=C(O)/C=C/c1ccc(O)c(O)c1 [Caffeic acid, caffeic acid, reference compound] | – | – | – | – | O2*− (%) [2]: 15%
COc1ccc2cc(/C=[N+](\[O-])Cc3ccccc3)c(Cl)nc2c1 [Compound 27, (Z)—N-Benzyl-1-(2-chloro-7-methoxyquinolin-3-yl)methanimine oxide] | 26.6 ± 0.37 | 28 ± 1.15 | 19.4 ± 1.51 | – | –
[O-]/[N+](=C\c1cc2cc(O)ccc2nc1Cl)Cc1ccccc1 [Compound 25, (Z)—N-Benzyl-1-(2-chloro-6-hydroxyquinolin-3-yl)methanimine oxide] | 25.15 ± 0.14 | < 0 | < 0 | < 0 | –
Cc1ccc2[nH]c(=O)c(/C=[N+](\[O-])C(C)(C)C)cc2c1 [Compound 17, (Z)—N-tert-Butyl-1-(6-methyl-2-oxo-1,2-dihydroquinolin-3-yl)methanimine oxide] | – | 20.2 ± 1.1 | 17.6 ± 1.35 | 10.9 ± 0.88 | –
Cc1ccc2nc(Cl)c(/C=[N+](\[O-])Cc3ccccc3)cc2c1 [Compound 4, (Z)—N-benzyl-1-(2-chloro-6-methylquinolin-3-yl)methanimine oxide, reference compound] | – | 55.4 ± 1.74 | – | – | viability at 50 µM ([1]; Rattus norvegicus, 50 μM): 56.8 ± 2.57%
CC(C)(C)/[N+]([O-])=C/c1cc2ccccc2n2nnnc12 [Compound 31, (Z)—N-tert-Butyl-1-(tetrazolo[1,5-a]quinolin-4-yl)methanimine oxide] | 7.64 ± 0.14 | 9.84 ± 0.65 | 5.83 ± 0.56 | – | –
Cc1ccc2nc(Cl)c(C=NO)cc2c1 [Compound 6] | – | – | – | – | Neuroprotection (%) ([1]; 0.5 μM): 8.30 ± 0.62%; Neuroprotection (%) ([1]; 1 μM): 11.28 ± 1.32%; Neuroprotection (%) ([1]; 10 μM): <0%; Neuroprotection (%) ([1]; 100 μM): <0%
COc1nc2ccc(C)cc2cc1/C=[N+](\[O-])Cc1ccccc1 [Compound 14, (Z)—N-Benzyl-1-(2-methoxy-6-methylquinolin-3-yl)methanimine oxide] | 17.6 ± 1.11 | 23.7 ± 1.77 | < 0 | – | –
[O-]/[N+](=C\c1cc2cc(Cl)ccc2nc1Cl)Cc1ccccc1 [Compound 26, (Z)—N-Benzyl-1-(2,6-dichloroquinolin-3-yl)methanimine oxide] | 41.72 ± 0.3 | 37.7 ± 0.52 | < 0 | 0.35 ± 0.02 | –
CNc1nc2ccc(C)cc2cc1/C=[N+](\[O-])Cc1ccccc1 [Compound 15, (Z)—N-Benzyl-1-(6-methyl-2-(methylamino)quinolin-3-yl)methanimine oxide] | 8.5 ± 0.18 | < 0 | – | – | viability at 5 µM ([1]; Rattus norvegicus, 5 μM): 1.57 ± 0.03%
Cc1ccc2[nH]c(=O)c(/C=[N+](\[O-])Cc3ccccc3)cc2c1 [Compound 13, (Z)—N-Benzyl-1-(6-methyl-2-oxo-1,2-dihydroquinolin-3-yl)methanimine oxide] | – | 35.9 ± 1.46 | 42 ± 1.86 | 29.8 ± 1.25 | –
COc1nc2ccccc2cc1/C=[N+](\[O-])Cc1ccccc1 [Compound 21, (Z)—N-Benzyl-1-(2-methoxyquinolin-3-yl)methanimine oxide] | < 0 | 24.2 ± 0.36 | < 0 | – | –
Cc1ccc2nc(N(C)C)c(/C=[N+](\[O-])Cc3ccccc3)cc2c1 [Compound 16, (Z)—N-Benzyl-1-(2-(dimethylamino)-6-methylquinolin-3-yl)methanimine oxide] | 12.9 ± 0.34 | 34.3 ± 0.59 | < 0 | < 0 | –
[O-]/[N+](=C\c1cc2ccccc2nc1Cl)Cc1ccccc1 [Compound 20, (Z)—N-Benzyl-1-(2-chloroquinolin-3-yl)methanimine oxide] | 32.8 ± 2.72 | < 0 | < 0 | – | –
